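96-well plates; 48 h exposure; 5 concentrations. Endpoints by linear interpolation between flanking doses. Not reached: highest tested concentration assigned. TGI is the concentration that stops growth completely.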
Assays:
Experiment in all cases: DTP human tumour cell line panel, 48 h
[1] = test system: 786-0 renal
[2] = test system: A549 NSCLC
[3] = test system: CCRF-CEM leukemia
[4] = test system: COLO 205 colon
[5] = test system: DLD-1 colon
[6] = test system: DMS 114 small cell lung
[7] = test system: DMS 273 small cell lung
[8] = test system: EKVX NSCLC
[9] = test system: HCC-2998 colon
[10] = test system: HCT-116 colon
[11] = test system: HL-60(TB) leukemia
[12] = test system: HOP-18 NSCLC
[13] = test system: HOP-62 NSCLC
[14] = test system: HT29 colon
[15] = test system: IGROV1 ovarian
[16] = test system: K-562 leukemia
[17] = test system: KM12 colon
[18] = test system: KM20L2 colon
[19] = test system: LOX IMVI melanoma
[20] = test system: LXFL 529 NSCLC
[21] = test system: M14 melanoma
[22] = test system: M19-MEL melanoma
[23] = test system: MOLT-4 leukemia
[24] = test system: NCI-H226 lung
[25] = test system: NCI-H23 lung
[26] = test system: NCI-H460 lung
[27] = test system: NCI-H522 lung
[28] = test system: OVCAR-3 ovarian
[29] = test system: OVCAR-4 ovarian
[30] = test system: OVCAR-8 ovarian
[31] = test system: RPMI-8226 leukemia
[32] = test system: RXF 393 renal
[33] = test system: SF-268 CNS
[34] = test system: SF-295 CNS
[35] = test system: SF-539 CNS
[36] = test system: SK-MEL-28 melanoma
[37] = test system: SK-MEL-5 melanoma
[38] = test system: SK-OV-3 ovarian
[39] = test system: SN12C renal
[40] = test system: SNB-19 CNS
[41] = test system: SNB-75 CNS
[42] = test system: SNB-78 CNS
[43] = test system: SW-620 colon
[44] = test system: TK-10 renal
[45] = test system: U251 CNS
[46] = test system: UACC-62 melanoma
[47] = test system: XF 498 CNS
[48] = test system: A498 renal
[49] = test system: ACHN renal
[50] = test system: HCT-15 colon
[51] = test system: MALME-3M melanoma
[52] = test system: OVCAR-5 ovarian
[53] = test system: RXF-631 renal
[54] = test system: SK-MEL-2 melanoma
[55] = test system: SR leukemia
[56] = test system: UACC-257 melanoma
[57] = test system: UO-31 renal
[58] = test system: CAKI-1 renal

## C=C[C@H]1C=Cc2c(OC)cccc2[C@@H]1COP1(=S)NC(C)C(c2ccccc2)O1 (stereo partly specified)
[1]
  TGI: > 100 µM
[2]
  TGI: > 100 µM
[3]
  TGI: > 100 µM
[4]
  TGI: > 100 µM
[5]
  TGI: > 100 µM
[6]
  TGI: > 100 µM
[7]
  TGI: > 100 µM
[8]
  TGI: > 100 µM
[9]
  TGI: > 100 µM
[10]
  TGI: > 100 µM
[11]
  TGI: 50.2 µM
[12]
  TGI: > 100 µM
[13]
  TGI: > 100 µM
[14]
  TGI: > 100 µM
[15]
  TGI: > 100 µM
[16]
  TGI: > 100 µM
[17]
  TGI: > 100 µM
[18]
  TGI: > 100 µM
[19]
  TGI: > 100 µM
[20]
  TGI: > 100 µM
[21]
  TGI: > 100 µM
[22]
  TGI: > 100 µM
[23]
  TGI: > 100 µM
[24]
  TGI: > 100 µM
[25]
  TGI: > 100 µM
[26]
  TGI: > 100 µM
[27]
  TGI: > 100 µM
[28]
  TGI: > 100 µM
[29]
  TGI: > 100 µM
[30]
  TGI: > 100 µM
[31]
  TGI: > 100 µM
[32]
  TGI: > 100 µM
[33]
  TGI: > 100 µM
[34]
  TGI: > 100 µM
[35]
  TGI: > 100 µM
[36]
  TGI: > 100 µM
[37]
  TGI: > 100 µM
[38]
  TGI: > 100 µM
[39]
  TGI: > 100 µM
[40]
  TGI: > 100 µM
[41]
  TGI: > 100 µM
[42]
  TGI: > 100 µM
[43]
  TGI: > 100 µM
[44]
  TGI: > 100 µM
[45]
  TGI: > 100 µM
[46]
  TGI: > 100 µM
[47]
  TGI: > 100 µM

## Nc1nc(=O)n(CC(O)CO)s1 (stereo unspecified)
[48]
  TGI: > 100 µM
[2]
  TGI: > 100 µM
[49]
  TGI: > 100 µM
[3]
  TGI: > 100 µM
[4]
  TGI: > 100 µM
[5]
  TGI: > 100 µM
[6]
  TGI: > 100 µM
[7]
  TGI: > 100 µM
[8]
  TGI: > 100 µM
[9]
  TGI: > 100 µM
[10]
  TGI: > 100 µM
[50]
  TGI: > 100 µM
[11]
  TGI: > 100 µM
[12]
  TGI: > 100 µM
[13]
  TGI: > 100 µM
[14]
  TGI: > 100 µM
[15]
  TGI: > 100 µM
[16]
  TGI: > 100 µM
[18]
  TGI: > 100 µM
[19]
  TGI: > 100 µM
[20]
  TGI: > 100 µM
[21]
  TGI: > 100 µM
[22]
  TGI: > 100 µM
[51]
  TGI: > 100 µM
[23]
  TGI: > 100 µM
[24]
  TGI: > 100 µM
[25]
  TGI: > 100 µM
[26]
  TGI: > 100 µM
[28]
  TGI: > 100 µM
[29]
  TGI: > 100 µM
[52]
  TGI: > 100 µM
[30]
  TGI: > 100 µM
[31]
  TGI: > 100 µM
[32]
  TGI: > 100 µM
[53]
  TGI: > 100 µM
[33]
  TGI: > 100 µM
[34]
  TGI: > 100 µM
[35]
  TGI: > 100 µM
[54]
  TGI: > 100 µM
[37]
  TGI: > 100 µM
[39]
  TGI: > 100 µM
[40]
  TGI: > 100 µM
[41]
  TGI: > 100 µM
[55]
  TGI: > 100 µM
[43]
  TGI: > 100 µM
[44]
  TGI: > 100 µM
[45]
  TGI: > 100 µM
[56]
  TGI: > 100 µM
[46]
  TGI: > 100 µM
[57]
  TGI: > 100 µM

## COC(=O)Cc1cc(=O)n2c([nH]c3ccccc32)c1C#N
[1]
  TGI: > 100 µM
[48]
  TGI: > 100 µM
[2]
  TGI: > 100 µM
[49]
  TGI: > 100 µM
[58]
  TGI: > 100 µM
[4]
  TGI: > 100 µM
[5]
  TGI: > 100 µM
[6]
  TGI: > 100 µM
[7]
  TGI: > 100 µM
[8]
  TGI: > 100 µM
[9]
  TGI: > 100 µM
[10]
  TGI: > 100 µM
[50]
  TGI: > 100 µM
[11]
  TGI: > 100 µM
[13]
  TGI: > 100 µM
[14]
  TGI: > 100 µM
[15]
  TGI: > 100 µM
[16]
  TGI: > 100 µM
[17]
  TGI: > 100 µM
[18]
  TGI: > 100 µM
[19]
  TGI: > 100 µM
[21]
  TGI: > 100 µM
[22]
  TGI: > 100 µM
[51]
  TGI: > 100 µM
[23]
  TGI: > 100 µM
[24]
  TGI: > 100 µM
[25]
  TGI: > 100 µM
[26]
  TGI: > 100 µM
[28]
  TGI: > 100 µM
[29]
  TGI: > 100 µM
[52]
  TGI: > 100 µM
[30]
  TGI: > 100 µM
[31]
  TGI: > 100 µM
[32]
  TGI: > 100 µM
[33]
  TGI: > 100 µM
[34]
  TGI: > 100 µM
[35]
  TGI: > 100 µM
[54]
  TGI: > 100 µM
[36]
  TGI: > 100 µM
[37]
  TGI: > 100 µM
[38]
  TGI: > 100 µM
[39]
  TGI: > 100 µM
[40]
  TGI: > 100 µM
[41]
  TGI: > 100 µM
[42]
  TGI: > 100 µM
[55]
  TGI: > 100 µM
[43]
  TGI: > 100 µM
[44]
  TGI: > 100 µM
[45]
  TGI: > 100 µM
[56]
  TGI: > 100 µM
[57]
  TGI: > 100 µM
[47]
  TGI: > 100 µM

## CCOC(=O)c1cc(OC(=O)CC)c2c(OC)ccc(OC)c2c1
[1]
  TGI: > 100 µM
[2]
  TGI: > 100 µM
[49]
  TGI: > 100 µM
[58]
  TGI: > 100 µM
[4]
  TGI: > 100 µM
[5]
  TGI: > 100 µM
[6]
  TGI: > 100 µM
[7]
  TGI: > 100 µM
[8]
  TGI: > 100 µM
[9]
  TGI: > 100 µM
[10]
  TGI: > 100 µM
[50]
  TGI: 96.6 µM
[12]
  TGI: > 100 µM
[15]
  TGI: > 100 µM
[16]
  TGI: > 100 µM
[17]
  TGI: > 100 µM
[20]
  TGI: > 100 µM
[22]
  TGI: > 100 µM
[51]
  TGI: > 100 µM
[23]
  TGI: > 100 µM
[25]
  TGI: > 100 µM
[26]
  TGI: > 100 µM
[27]
  TGI: > 100 µM
[29]
  TGI: > 100 µM
[52]
  TGI: > 100 µM
[31]
  TGI: > 100 µM
[32]
  TGI: 69.7 µM
[35]
  TGI: > 100 µM
[54]
  TGI: > 100 µM
[36]
  TGI: > 100 µM
[37]
  TGI: > 100 µM
[38]
  TGI: 91.6 µM
[39]
  TGI: > 100 µM
[40]
  TGI: > 100 µM
[41]
  TGI: 99 µM
[55]
  TGI: > 100 µM
[43]
  TGI: > 100 µM
[44]
  TGI: > 100 µM
[45]
  TGI: > 100 µM
[46]
  TGI: > 100 µM
[57]
  TGI: > 100 µM
[47]
  TGI: > 100 µM
